Reference: ChEMBL document CHEMBL2074469, “Analysis of methotrexate and folate transport by multidrug resistance protein 4 (ABCC4): MRP4 is a component of the methotrexate efflux system” (Cancer Res, 2002)

Columns and labels:
Format in all cases: functional, cell membranes, Membrane vesicle
[1] = molecular target: T1, MRP4 (ATP-binding cassette sub-family C member 4) (Homo sapiens, UniProt O15439); assay: TP_TRANSPORTER: inhibition of MTX uptake (MTX: 20 uM, PSC-833: 10 uM) in membrane vesicles from MRP4-expressing Sf9 cells; parameters: scale not given: the % may be the effect or the level left; settings: probe MTX (20 uM), read-out: Activity
T1 sequence (O15439 whole entry): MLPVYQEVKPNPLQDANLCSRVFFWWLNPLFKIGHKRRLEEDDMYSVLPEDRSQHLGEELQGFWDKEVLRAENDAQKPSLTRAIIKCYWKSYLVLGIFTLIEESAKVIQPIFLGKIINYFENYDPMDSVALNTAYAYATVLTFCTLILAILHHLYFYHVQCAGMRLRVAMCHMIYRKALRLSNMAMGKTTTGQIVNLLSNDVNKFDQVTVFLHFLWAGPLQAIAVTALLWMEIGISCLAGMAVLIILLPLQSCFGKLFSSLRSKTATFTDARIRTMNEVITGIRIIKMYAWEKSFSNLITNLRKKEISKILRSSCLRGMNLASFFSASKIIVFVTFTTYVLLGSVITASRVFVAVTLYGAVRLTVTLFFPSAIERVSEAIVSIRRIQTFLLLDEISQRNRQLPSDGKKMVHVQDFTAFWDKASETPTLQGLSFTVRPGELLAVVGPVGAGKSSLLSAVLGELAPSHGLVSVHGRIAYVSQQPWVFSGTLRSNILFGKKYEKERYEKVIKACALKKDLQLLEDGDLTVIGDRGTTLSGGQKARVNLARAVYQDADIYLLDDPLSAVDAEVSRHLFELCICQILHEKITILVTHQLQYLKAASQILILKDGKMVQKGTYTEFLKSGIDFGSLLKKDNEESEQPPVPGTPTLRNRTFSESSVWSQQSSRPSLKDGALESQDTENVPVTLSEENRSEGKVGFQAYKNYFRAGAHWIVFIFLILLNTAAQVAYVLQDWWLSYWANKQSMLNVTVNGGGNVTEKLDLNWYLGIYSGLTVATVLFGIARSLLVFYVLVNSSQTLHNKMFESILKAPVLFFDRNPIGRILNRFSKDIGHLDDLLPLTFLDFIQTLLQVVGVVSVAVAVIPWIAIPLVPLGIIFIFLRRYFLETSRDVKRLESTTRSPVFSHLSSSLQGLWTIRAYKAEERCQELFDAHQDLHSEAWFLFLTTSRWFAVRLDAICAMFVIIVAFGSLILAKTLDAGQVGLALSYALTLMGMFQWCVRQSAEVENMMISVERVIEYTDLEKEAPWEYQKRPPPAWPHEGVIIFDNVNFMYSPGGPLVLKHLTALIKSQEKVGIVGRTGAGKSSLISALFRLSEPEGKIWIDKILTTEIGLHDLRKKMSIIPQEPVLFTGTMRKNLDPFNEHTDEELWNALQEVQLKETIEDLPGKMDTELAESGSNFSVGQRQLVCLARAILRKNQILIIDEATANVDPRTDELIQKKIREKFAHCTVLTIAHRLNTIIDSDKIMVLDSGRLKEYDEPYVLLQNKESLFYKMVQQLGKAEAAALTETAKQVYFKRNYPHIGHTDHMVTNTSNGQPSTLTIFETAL

[2] = molecular target: T1, MRP4 (ATP-binding cassette sub-family C member 4); assay: TP_TRANSPORTER: inhibition of MTX uptake (MTX: 20 uM, Leucovorin: 300 uM) in membrane vesicles from MRP4-expressing Sf9 cells; parameters: scale not given: the % may be the effect or the level left; settings: probe MTX (20 uM), read-out: Activity
[3] = molecular target: T1, MRP4 (ATP-binding cassette sub-family C member 4); assay: TP_TRANSPORTER: inhibition of MTX uptake (MTX: 20 uM, Trequinsin: 10 uM) in membrane vesicles from MRP4-expressing Sf9 cells; parameters: scale not given: the % may be the effect or the level left; settings: probe MTX (20 uM), read-out: Activity
[4] = molecular target: T1, MRP4 (ATP-binding cassette sub-family C member 4); assay: TP_TRANSPORTER: inhibition of MTX uptake (MTX: 20 uM, Sildenafil: 10 uM) in membrane vesicles from MRP4-expressing Sf9 cells; parameters: scale not given: the % may be the effect or the level left; settings: probe MTX (20 uM), read-out: Activity
[5] = molecular target: T1, MRP4 (ATP-binding cassette sub-family C member 4); assay: TP_TRANSPORTER: inhibition of MTX uptake (MTX: 20 uM, Probenecid: 300 uM) in membrane vesicles from MRP4-expressing Sf9 cells; parameters: scale not given: the % may be the effect or the level left; settings: probe MTX (20 uM), read-out: Activity
[6] = molecular target: T1, MRP4 (ATP-binding cassette sub-family C member 4); assay: TP_TRANSPORTER: inhibition of MTX uptake (MTX: 20 uM, Folic acid: 300 uM) in membrane vesicles from MRP4-expressing Sf9 cells; parameters: scale not given: the % may be the effect or the level left; settings: probe MTX (20 uM), read-out: Activity
[7] = molecular target: T1, MRP4 (ATP-binding cassette sub-family C member 4); assay: TP_TRANSPORTER: inhibition of MTX uptake (MTX: 20 uM, Sulfinpyrazone: 300 uM) in membrane vesicles from MRP4-expressing Sf9 cells; parameters: scale not given: the % may be the effect or the level left; settings: probe MTX (20 uM), read-out: Activity
[8] = molecular target: T1, MRP4 (ATP-binding cassette sub-family C member 4); assay: TP_TRANSPORTER: inhibition of MTX uptake (MTX: 20 uM, Zaprinast: 10 uM) in membrane vesicles from MRP4-expressing Sf9 cells; parameters: scale not given: the % may be the effect or the level left; settings: probe MTX (20 uM), read-out: Activity
[9] = molecular target: T1, MRP4 (ATP-binding cassette sub-family C member 4); assay: TP_TRANSPORTER: inhibition of MTX uptake (MTX: 20 uM, MK571: 1 uM) in membrane vesicles from MRP4-expressing Sf9 cells; parameters: scale not given: the % may be the effect or the level left; settings: probe MTX (20 uM), read-out: Activity
[10] = molecular target: T1, MRP4 (ATP-binding cassette sub-family C member 4); assay: TP_TRANSPORTER: inhibition of MTX uptake (MTX: 20 uM, E217betaG: 30 uM) in membrane vesicles from MRP4-expressing Sf9 cells; parameters: scale not given: the % may be the effect or the level left; settings: probe MTX (20 uM), read-out: Activity
[11] = molecular target: T1, MRP4 (ATP-binding cassette sub-family C member 4); assay: TP_TRANSPORTER: inhibition of MTX uptake (MTX: 20 uM, cGMP: 300 uM) in membrane vesicles from MRP4-expressing Sf9 cells; parameters: scale not given: the % may be the effect or the level left; settings: probe MTX (20 uM), read-out: Activity
[12] = molecular target: T1, MRP4 (ATP-binding cassette sub-family C member 4); assay: TP_TRANSPORTER: inhibition of MTX uptake (MTX: 20 uM, Verapamil: 30 uM) in membrane vesicles from MRP4-expressing Sf9 cells; parameters: scale not given: the % may be the effect or the level left; settings: probe MTX (20 uM), read-out: Activity
[13] = substrate: Nc1nc2c(c(=O)[nH]1)N(C=O)C(CNc1ccc(C(=O)N[C@@H](CCC(=O)O)C(=O)O)cc1)CN2; assay: (§1) TP_TRANSPORTER: uptake in membrane vesicles from MRP4-expressing Sf9 cells
[14] = substrate: Nc1nc2ncc(CNc3ccc(C(=O)N[C@@H](CCC(=O)O)C(=O)O)cc3)nc2c(=O)[nH]1; assay: as §1

`C/C=C/C[C@@H](C)C(=O)[C@H]1C(=O)N[C@@H](C(C)C)C(=O)N(C)CC(=O)N(C)[C@@H](CC(C)C)C(=O)N[C@@H](C(C)C)C(=O)N(C)[C@@H](CC(C)C)C(=O)N[C@@H](C)C(=O)N[C@H](C)C(=O)N(C)[C@@H](CC(C)C)C(=O)N(C)[C@@H](CC(C)C)C(=O)N(C)[C@@H](C(C)C)C(=O)N1C` [VALSPODAR] gave an activity at 10 µM [1] of 56.4%.

For `Nc1nc2c(c(=O)[nH]1)N(C=O)C(CNc1ccc(C(=O)N[C@@H](CCC(=O)O)C(=O)O)cc1)CN2` (some centres undefined) [LEUCOVORIN], the activity at 300 µM [2] was 71.2%.

Molecule `COc1cc2c(cc1OC)-c1c/c(=N\c3c(C)cc(C)cc3C)n(C)c(=O)n1CC2` [TREQUINSIN] has an activity at 10 µM [3] of 25.7%.

With `CCCc1nn(C)c2c(=O)[nH]c(-c3cc(S(=O)(=O)N4CCN(C)CC4)ccc3OCC)nc12` the activity at 10 µM [4] was 46%.

In the case of `CCCN(CCC)S(=O)(=O)c1ccc(C(=O)O)cc1` [PROBENECID], the activity at 300 µM [5] is reported as 49.4%.

`Nc1nc2ncc(CNc3ccc(C(=O)N[C@@H](CCC(=O)O)C(=O)O)cc3)nc2c(=O)[nH]1` [FOLIC ACID] gave an activity at 300 µM [6] of 45%.

`O=C1C(CC[S+]([O-])c2ccccc2)C(=O)N(c2ccccc2)N1c1ccccc1` (centres undefined) [SULFINPYRAZONE] was tested, and the activity at 300 µM [7] was 23.3%.

`CCCOc1ccccc1-c1nc2nn[nH]c2c(=O)[nH]1` [ZAPRINAST] was tested, and the activity at 10 µM [8] was 34.1%.

Work on `CN(C)C(=O)CCSC(SCCC(=O)O)c1cccc(/C=C/c2ccc3ccc(Cl)cc3n2)c1` (centres undefined) [MK-571] yielded an activity at 1 µM [9] of 56.4%.

`C[C@]12CC[C@@H]3c4ccc(O)cc4CC[C@H]3[C@@H]1CC[C@@H]2O[C@@H]1O[C@H](C(=O)O)[C@@H](O)[C@H](O)[C@H]1O` [ESTRADIOL 17B GLUCURONIDE] showed an activity at 30 µM [10] of 39.9%.

In the case of `Nc1nc2c(ncn2[C@@H]2O[C@@H]3COP(=O)(O)O[C@H]3[C@H]2O)c(=O)[nH]1`, the activity at 300 µM [11] is reported as 46.5%.

Molecule `COc1ccc(CCN(C)CCCC(C#N)(c2ccc(OC)c(OC)c2)C(C)C)cc1OC` (centres undefined) has an activity at 30 µM [12] of 53.8%.

B1: ATP-binding cassette sub-family C member 4 (Homo sapiens) (protein)
chain: T1 sequence (O15439 whole entry)
B1 was tested, and the Km [13] was 640 µM and the Km [14] was 170 µM.
